How the values were obtained:
Type in all cases: cell-based, human
Colo320-Mock = experiment: Ratio of SP cells upon addition of taurine, Colo320-Mock; conditions: taurine 0.05-5 mM, FIG. 10
Procedure: (§1) After being transformed in the same manner as shown in Example 8(1) above, the cells were detached on the second day with DISSOCIATION BUFFER (Invitrogen). The cells were stained at 37° C. for 1 hour with a solution prepared to contain 10 μg/mL Hoechst 33342 in PBS(−), followed by analysis using FACS Canto II and a Violet laser (excitation wavelength: 407 nm). Moreover, to identify an SP fraction, an additional experiment was conducted in which verapamil serving an inhibitor of drug efflux transporters was added at a concentration of 30 μg/mL.
(§2) For this analysis, Colo320 cells (which are human colorectal cancer cells) were engineered to overexpress SLC6A6 and cultured for 2 days in a medium supplemented with taurine at a concentration of 0.05 mM, 0.1 mM, 0.5 mM, 1 mM or 5 mM, and then analyzed for SP cells in the same manner as shown in Example 1(3).

Colo320-SLC6A6-OEx = experiment: Ratio of SP cells upon addition of taurine, Colo320-SLC6A6-OEx
Procedure: as §1, §2

[1] = system: SW480 cells (SP and MP fractions); experiment: FACS staining of SP and MP fractions of SW480 cells; conditions: SW480, verapamil 30 μg/mL
Procedure: Moreover, to identify an SP fraction, an additional experiment was conducted in which verapamil serving an inhibitor of drug efflux transporters was added at a concentration of 30 μg/mL.
SLC6A6 expression was analyzed for the SP fraction and non-SP fraction (i.e., major population (MP) fraction) of SW480 cells, which are human colorectal cancer cells.

Row | Compound | number of SP cells (Colo320-Mock) | increase of ratio of SP cells compared to the absence of taurine (Colo320-SLC6A6-OEx; 5 mM taurine) | ratio of SP cells (Colo320-SLC6A6-OEx; 5 mM taurine, cultured 2 days (17.0% in the absence of taurine)) | number of SP cells (Colo320-SLC6A6-OEx; taurine 0.05-5 mM, FIG. 10) | SP cells in the presence of verapamil [1]
1 | NCCS(=O)(=O)O [taurine] | increased in a manner dependent on the added concentration of taurine | about 2.5 fold | 26.7% | increased in a manner dependent on the added concentration of taurine | 
2 | COc1ccc(CCN(C)CCCC(C#N)(c2ccc(OC)c(OC)c2)C(C)C)cc1OC (centres unmarked) [verapamil] |  |  |  |  | no SP cells were observed

From patent US10214584B2, “Therapeutic pharmaceutical composition employing anti-SLC6A6 antibody” (ORDER-MADE MEDICAL RESEARCH INC., priority 2014, dated 2019)
